We go through one compound from patent US7943628B2, “Pyrimidine derivatives” (Pfizer Limited, priority 2005, dated 2011).

Assay [1] has as its target T1, histamine H4 receptor (Homo sapiens, UniProt Q9H3N8).
T1 construct: expressed in transfected cells; host or cells: CHO cells
The assay can be described thus: H4 binding, method 1 ([3H]-histamine filtration binding on CHO cell membranes). Particulars: H4 binding, method 1; Ki calculated from IC50 (Cheng-Prussoff). The essentials:
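Membranes from CHO cells expressing human H4 receptor (20-35 μg/well) incubated 90 min at room temperature with 3 nM [3H]-histamine in 50 mM Tris-HCl pH 7.4, ± competitor. Bound label separated by filtration on PEI-soaked GF/B filters and counted by scintillation; non-specific binding with 10 μM JNJ7777120.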

The target in assay [2] is T1, histamine H4 receptor. In words: H4 binding, method 2 ([3H]-histamine binding with Ysi WGA beads on CHO cell membranes). The conditions noted are these: Method 2 (Ki (nM)), H4 binding, method 2; Ki calculated from IC50 (Cheng-Prussoff). The essentials:
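Membranes from H4-expressing CHO cells were pre-bound to WGA SPA beads, then incubated 90 min at room temperature with 6.5 nM [3H]-histamine in 50 mM Tris-HCl pH 7.4, with or without competitor. Non-specific binding defined with 10 μM JNJ7777120; bound label read by scintillation counting.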

T1 sequence (Q9H3N8 whole entry): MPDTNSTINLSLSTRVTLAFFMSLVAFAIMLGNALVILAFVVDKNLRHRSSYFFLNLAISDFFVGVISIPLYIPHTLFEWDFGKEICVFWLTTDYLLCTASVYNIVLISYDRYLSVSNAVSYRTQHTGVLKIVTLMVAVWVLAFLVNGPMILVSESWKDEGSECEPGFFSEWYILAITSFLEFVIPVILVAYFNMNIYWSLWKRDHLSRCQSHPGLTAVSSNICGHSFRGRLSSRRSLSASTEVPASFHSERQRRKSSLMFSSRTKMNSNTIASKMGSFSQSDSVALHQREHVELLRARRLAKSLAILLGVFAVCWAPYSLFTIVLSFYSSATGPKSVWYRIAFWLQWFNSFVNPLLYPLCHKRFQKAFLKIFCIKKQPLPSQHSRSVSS

As to `CC(C)(C)CNc1cc(N2C[C@H]3CCCN[C@H]3C2)nc(N)n1` (racemic) [Example 30, N^4-(2,2-Dimethylpropyl)-6-[(4aR*,7aR*)-octahydro-6H-pyrrolo[3,4-b]pyridin-6-yl] pyrimidine-2,4-diamine], the figures for the Ki on histamine H4 receptor [1] and at histamine H4 receptor [2] were 3.06 nM and 19.3 nM, respectively.
